Measured values published in patent publication US20200315998A1, “COMPOSITION FOR IMPROVING INTESTINAL BARRIER FUNCTION” (SUNTORY HOLDINGS LIMITED, priority 2017, published 2020).

Tested on: Caco-2 cells
Experiment: Evaluation of intestinal barrier function improvement: TEER reduction suppression in Caco-2 monolayer with inflammatory cytokines (TNFα, IL-1β, IFNγ)
Assay type: cell-based, human
Details: for Synergistic effect (M.V./T/V/) / TEER reduction suppression ratio (%) +gallic acid (actual measurement value) (M.V.) / Synergistic effect (M.V./T.V.): combined use of phenolic compound and gallic acid; for TEER reduction suppression ratio (%) +gallic acid (theoretical value) (T.V.): sum of ratios of phenolic compound alone and gallic acid alone; for Relative value of TEER reduction suppression ratio: sample alone 1 μM; for Synergistic effect (relative value of actual measurement value / relative value of theoretical value): combined use of the phenolic compound with gallic acid, 1 μM each (Table 1)
Text: The intestinal barrier function improvement effect is indicated by, for example, increase in the electrical resistance value (transepithelial electric resistance: TEER) of the intestinal epithelial cells or suppression of the decrease in the TEER. A substance increasing the TEER or suppressing the decrease thereof has the action of normalizing or strengthening the tight junction in the intestinal epithelial cells. The intestinal barrier function improvement effect is also indicated by decrease in the amount of a substance permeating from the intestinal side of the intestinal epithelial cells to the inside of the body. The person skilled in the art can select a specific method of evaluating the intestinal barrier function improvement effect depending on the purpose. For exarple, as shown in Examples to be described later, a method for measuring TEER using an intestinal permeation model using human intestinal epithelial cells (Caco-2 cells) can be used. Specifically, inflammatory cytokine (TNFα, IL-1β, IFNγ and the like) is added into Caco-2 monolayer cultured cells to produce a state where the intestinal barrier function can be collapsed in human. If the addition of a test substance suppresses the decrease in the TEER as compared with the case where the substance is not added, the test substance can be evaluated to have the intestinal barrier function improvement effect.
Caco-2 cells were cultured for three weeks at 37° C. in Transwell (manufactured by Millicell Corporation) using DMEM (Dulbecco's modified Eagle's medium). A medium was removed from a plate of cultured Caco-2 cells, and the well was washed 3 times with serum-free DMEM. The well was filled with the medium. Then, the transepithelial electrical resistance (TEER) of Caco-2 monolayer cells was measured by Millicell-ERS (manufactured by Millipore Corporation). Cells (TEER≥1000 Ω·cm^2) determined that a sufficient tight junction was formed were selected, and used for the next screening. Then, to test solutions (media) on both apical and basolateral membrane sides, a sample, TNFα (40 ng/mL), IL-1β (20 ng/mL), and IFNγ (10 ng/mL) were added, followed by cultivating for 48 hours. The sample was dissolved in dimethyl sulfoxide (DMSO), and the solution was then added to the test solutions. In this case, a well to which inflammatory cytokine (TNFα, IL-1β, and IFNγ) and the sample were not added was provided as normal. A well to which inflammatory cytokine was added and the sample was not added was provided as control. After the cultivation, TEER was measured again, to evaluate whether the sample suppressed the reduction (decrease) of TEER due to the inflammatory cytokine.
The TEER reduction suppression ratio (%) due to the sample was determined according to the following formula from the TEER values of the well to which the sample was added, normal, and control.
(Calculating formula of TEER reduction suppression ratio) TEER reduction suppression ratio (%)=100×((TEER of well to which sample is added)−(TEER of control))/((TEER of normal)−(TEER of control))
In this evaluation system, as the TEER reduction suppression ratio (%) is higher, an intestinal barrier function improvement effect is higher.

[1] = Evaluation 1, catechin (CA) set to 1.0
[2] = Evaluation 2, epicatechin (EC) set to 1.0
[3] = Evaluation 3, gallocatechin (GC) set to 1.0

Row | Compound | Synergistic effect (M.V./T/V/) (each 10 μM) | TEER reduction suppression ratio (%) +gallic acid (actual measurement value) (M.V.) (each 10 μM) [%] | Synergistic effect (M.V./T.V.) (each 1 μM) | TEER reduction suppression ratio (%) +gallic acid (actual measurement value) (M.V.) (each 1 μM) [%] | further results
1 | C[C@@H]1O[C@@H](OC[C@H]2O[C@@H](Oc3c(-c4ccc(O)c(O)c4)oc4cc(O)cc(O)c4c3=O)[C@H](O)[C@@H](O)[C@@H]2O)[C@H](O)[C@H](O)[C@H]1O [Rutin, rutin] | 2.9 | 45 | – | – | –
2 | O=C(O[C@@H]1COC(=O)c2cc(O)c(O)c(O)c2-c2c(cc(O)c(O)c2O)C(=O)O[C@H]1[C@@H]1OC(=O)c2cc(O)c(O)c(O)c2-c2c(O)c(O)c(O)c3c2C(=O)O[C@H]1[C@@H]3O)c1cc(O)c(O)c(O)c1 [Casuarinin, casuarinin] | – | – | 1.4 | 81 | –
3 | O=C1C[C@@H](c2ccc(O)cc2)Oc2cc(O)cc(O)c21 [Naringenin, naringenin] | 2.0 | 61 | – | – | –
4 | O=c1c(O)c(-c2ccc(O)cc2)oc2cc(O)cc(O)c12 [Kaempferol, kaempferol] | 2.5 | 43 | – | – | –
5 | eugeniflorin D2 | – | – | 1.3 | 102 | TEER reduction suppression ratio (%) +gallic acid (theoretical value) (T.V.) (1 μM each): 80%
6 | Oc1cc(O)cc(/C=C/c2ccc(O)c(O)c2)c1 [Piceatannol, piceatannol] | 1.1 | 53 | – | – | –
7 | O=C1OCC2O[C@@H](O)C3OC(=O)c4cc(O)c(O)c(O)c4-c4c(cc(O)c(O)c4O)C(=O)OC3[C@@H]2OC(=O)c2cc(O)c(O)c(O)c2-c2c1cc(O)c(O)c2O (stereo partly shown) [Pedunculagin, pedunculagin] | – | – | 1.7 | 90 | –
8 | O=C(OC[C@H]1O[C@@H](O)[C@H](OC(=O)c2cc(O)c(O)c(O)c2)[C@@H](OC(=O)c2cc(O)c(O)c(O)c2)[C@@H]1OC(=O)c1cc(O)c(O)c(O)c1)c1cc(O)c(O)c(O)c1 [2,3,4,6-tetra-O-galloyl-β-D-glucose] | – | – | 2.0 | 90 | –
9 | catechin [Catechin (CA)] | – | – | – | – | Relative value of TEER reduction suppression ratio [1]: 1.0; Synergistic effect (relative value of actual measurement value / relative value of theoretical value): 2.0
10 | stenophyllanin A | – | – | 1.7 | 95 | TEER reduction suppression ratio (%) +gallic acid (theoretical value) (T.V.) (1 μM each): 56%
11 | Oc1cc(O)c2c(c1)O[C@H](c1ccc(O)c(O)c1)[C@H](O)[C@H]2c1c(O)cc(O)c2c1O[C@H](c1ccc(O)c(O)c1)[C@H](O)C2 [Procyanidin B2, procyanidin B2] | 1.5 | 76 | – | – | TEER reduction suppression ratio (%) +gallic acid (theoretical value) (T.V.) (10 μM each): 51%
12 | O=C(O)c1cc(O)c(O)c(O)c1Oc1cc2c(c(O)c1O)-c1c(cc(O)c(O)c1O)C(=O)O[C@@H]1C(COC2=O)O[C@@H](O)C2OC(=O)c3cc(O)c(O)c(O)c3-c3c(cc(O)c(O)c3O)C(=O)OC21 (stereo partly shown) [Praecoxin A, praecoxin A] | – | – | 1.4 | 104 | –
13 | O=C(/C=C/c1ccc(O)cc1)c1c(O)cc(O)cc1O [Naringenin chalcone, 4,2′,4′,6′-tetra-hydroxy chalcone] | 1.7 | 51 | – | – | –
14 | O=C(O)c1cc(O)c(O)c(O)c1 [Gallic acid (GA), 3,4,5-trihydroxybenzoic acid] | – | – | – | – | TEER reduction suppression ratio of gallic acid relative to quercetin at the same concentration (100 μM each, gallic acid vs quercetin): about 1.15 times; Relative value of TEER reduction suppression ratio [1]: 0.4; Relative value of TEER reduction suppression ratio [2]: 0.5; Relative value of TEER reduction suppression ratio [3]: 0.3; Relative value of TEER reduction suppression ratio (Evaluation 4, epigallocatechin (EGC) set to 1.0): 0.2; Suppression of the reduction of TEER due to inflammatory cytokine (gallic acid alone, 1 μM and 10 μM): suppressed the reduction of TEER; TEER reduction suppression ratio (sample alone 100 μM, TNFα 40 ng/mL, IL-1β 20 ng/mL, IFNγ 10 ng/mL, 48 hours): 86.5%
15 | stenophyllanin B | – | – | 1.3 | 82 | TEER reduction suppression ratio (%) +gallic acid (theoretical value) (T.V.) (1 μM each): 66%
16 | O=C(O[C@@H]1O[C@H](CO)[C@@H](O)[C@H](O)[C@H]1O)c1cc(O)c(O)c(O)c1 [β-glucogallin] | – | – | 2.4 | 48 | –
17 | O=c1cc(-c2ccc(O)c(O)c2)oc2cc(O)cc(O)c12 [Luteolin, luteolin] | 1.6 | 58 | – | – | –
18 | Oc1cc(O)c2c(c1)O[C@H](c1ccc(O)c(O)c1)[C@H](O)C2 [Epicatechin (EC), epicatechin] | – | – | – | – | Relative value of TEER reduction suppression ratio [2]: 1.0; Synergistic effect (relative value of actual measurement value / relative value of theoretical value): 1.7
19 | Oc1cc(O)c2c(c1)O[C@H](c1cc(O)c(O)c(O)c1)[C@@H](O)C2 [Galloatechin (GC), gallocatechin] | – | – | – | – | Relative value of TEER reduction suppression ratio [3]: 1.0; Synergistic effect (relative value of actual measurement value / relative value of theoretical value): 2.5
20 | O=c1c(O)cc([C@H]2Oc3cc(O)cc(O)c3C[C@H]2O)cc2c([C@H]3Oc4cc(O)cc(O)c4C[C@H]3O)cc(O)c(O)c12 [Theaflavin, theaflavin] | 1.6 | 98 | – | – | –
21 | O=C(O[C@@H]1Cc2c(O)cc(O)cc2O[C@@H]1c1cc(O)c(O)c(O)c1)c1cc(O)c(O)c(O)c1 [Epigallocatechin gallate, epigallocatechin gallate] | 1.5 | 114 | – | – | TEER reduction suppression ratio (%) +gallic acid (theoretical value) (T.V.) (10 μM each): 76%
22 | O=C(OC1C(OC(=O)c2cc(O)c(O)c(O)c2)[C@H](O)OC2COC(=O)c3cc(O)c(O)c(O)c3-c3c(cc(O)c(O)c3O)C(=O)O[C@H]21)c1cc(O)c(O)c(O)c1 (stereo partly shown) [Tellimagrandin I, tellimagrandin I] | – | – | 1.6 | 92 | –
23 | O=C1O[C@@H]2C3COC(=O)c4cc(O)c(O)c(O)c4-c4c(cc(O)c(O)c4O)C(=O)O[C@H]2C(OC(=O)c2cc(O)c(O)c4c2C2C1=CC(=O)C(O)(O)[C@@]2(O)O4)[C@H](OC(=O)c1cc(O)c(O)c(O)c1)O3 (stereo partly shown) [Geraniin, geraniin] | – | – | 2.4 | 119 | –
24 | O=C(O)/C=C/c1ccccc1O [2-Coumaric acid, 2-coumaric acid] | 3.0 | 46 | – | – | –
25 | Oc1cc(O)c2c(c1)O[C@H](c1ccc(O)c(O)c1)[C@@H](O)[C@@H]2c1c(O)cc(O)c2c1O[C@H](c1ccc(O)c(O)c1)[C@@H](O)C2 [Procyanidin B3, procyanidin B3] | 1.9 | 77 | – | – | TEER reduction suppression ratio (%) +gallic acid (theoretical value) (T.V.) (10 μM each): 53%
26 | O=C(O)/C=C/c1cccc(O)c1 [3-Coumaric acid, 3-coumaric acid] | 1.2 | 48 | – | – | –
27 | OC[C@H]1O[C@@H](Oc2cc(O)cc(/C=C/c3ccc(O)cc3)c2)[C@H](O)[C@@H](O)[C@@H]1O (relative stereo) [trans-Piceid, trans-piceid] | 1.5 | 65 | – | – | TEER reduction suppression ratio (%) +gallic acid (theoretical value) (T.V.) (10 μM each): 45%
28 | O=c1c(-c2ccc(O)cc2)coc2cc(O)ccc12 [Daidzein, daidzein] | 1.8 | 50 | – | – | –
29 | O=C(OC[C@H]1O[C@@H](OC(=O)c2cc(O)c(O)c(O)c2)[C@H](O)[C@@H](O)[C@@H]1OC(=O)c1cc(O)c(O)c(O)c1)c1cc(O)c(O)c(O)c1 [1,4,6-tri-O-galloyl-β-D-glucose] | – | – | 1.7 | 40 | –
